One assay has as its target T1, MR (Homo sapiens, UniProt P08235).
T1 construct: expressed in transfected cells; host or cells: Huh7 human liver cells (ATCC), transient transfection with FuGENE 6
T1 sequence (P08235 726-964 limits assumed): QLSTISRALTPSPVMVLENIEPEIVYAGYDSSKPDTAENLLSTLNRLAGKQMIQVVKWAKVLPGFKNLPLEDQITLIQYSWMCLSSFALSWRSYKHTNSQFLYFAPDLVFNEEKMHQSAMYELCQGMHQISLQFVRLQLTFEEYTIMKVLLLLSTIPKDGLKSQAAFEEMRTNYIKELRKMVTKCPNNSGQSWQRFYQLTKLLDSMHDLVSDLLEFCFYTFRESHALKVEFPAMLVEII
Briefly: Cell-based reporter assay (Gal4-MR-LBD luciferase, antagonist mode).
Settings: not given
On the procedure: To measure the ability of test compound in the present invention to modulate the activity of MR (agonize, antagonize, partially agonize, partially antagonize), bioassays were performed that measured the modulation of reporter gene expression. Cells were transiently transfected with a luciferase reporter gene under the control of a Gal4 response element (Gal4-RE-luc) and a plasmid containing the Gal4 DNA binding domain fused to the MR ligand binding domain (Gal4-MR-LBD). Agonists can bind to and activate the MR-LBD, which activates the expression of the luciferase reporter gene through interaction with the Gal4 response element. […] Antagonists can compete for binding to the NHR-LBD and decrease the agonist-induced transcriptional activity of the reporter gene. Therefore, measurement of luciferase activity allowed quantitative determinations of the reporter transcription in the presence of either agonists or competitive antagonists.
The final concentration of DMSO in the test plate was 0.5%. Following an overnight incubation with compound, 25 μL of Steady-Glow™ lysis buffer with luciferase substrate (Promega Corporation, E2550) was added directly to the cells. After a 30-minute incubation to completely lyse the cells, the microplates were counted in an Envision™ Multilabel Reader (Perkin Elmer) in single photon counting mode.
Background: Reporter assays use an easily measured gene product as a stand-in for the process of interest.
One may read the IC50 as the concentration that inhibits the measured activity by half. Low readings indicate higher potency, high ones lower potency. As to `O=C1COc2ccc(N3CCOC[C@H]3c3ccc(F)cc3)nc2N1` (single isomer, unassigned) [Example 14], the IC50 is 1100 nM.

In the case of `C[C@H]1CN(c2ccc3c(n2)NC(=O)CO3)[C@@H](c2ccccc2Cl)CO1` (racemic) [Example 66, (±)-6-(cis-5-(2-chlorophenyl)-2-methylmorpholino)-2H-pyrido[3,2-b][1,4]oxazin-3(4H)-one], the concentration for half-maximal inhibition (IC50) worked out at 451 nM.

`C[C@@H]1CN(c2ccc3c(n2)NC(=O)C(F)(F)O3)[C@H](c2ccccc2)CO1` [Example 30, 2,2-difluoro-6-((2R,5R)-2-methyl-5-phenylmorpholino)-2H-pyrido[3,2-b][1,4]oxazin-3(4H)-one]: the half-inhibitory concentration (IC50) was found to be 9560 nM.

Regarding `C[C@@H]1CN(c2nc3c(cc2F)OCC(=O)N3)[C@H](c2ccccc2)CO1` [Example 37, 7-fluoro-6-((2R,5R)-2-methyl-5-phenylmorpholino)-2H-pyrido[3,2-b][1,4]oxazin-3(4H)-one], the IC50 was 1440 nM.

Turning to `CC[C@@H]1CN(c2ccc3c(n2)NC(=O)CO3)C[C@H](CC)O1` [Example 57, 6-(cis-2,6-diethylmorpholino)-2H-pyrido[3,2-b][1,4]oxazin-3(4H)-one], the midpoint of inhibition, the IC50, lay at 4690 nM.

As to `Cc1nc(N2C[C@@H](C)OC[C@H]2c2ccccc2)nc2c1OCC(=O)N2` [Example 68, 4-methyl-2-((2R,5R)-2-methyl-5-phenylmorpholino)-6H-pyrimido[5,4-b][1,4]oxazin-7(8H)-one], the IC50 came out at 2280 nM.

On to `C[C@@H]1CN(c2cc3c(cn2)OCC(=O)N3)[C@H](c2ccccc2)CO1` [Example 46, 7-((2R,5R)-2-methyl-5-phenylmorpholino)-1H-pyrido[3,4-b][1,4]oxazin-2(3H)-one], for which the IC50 stood at 252 nM. Compared with the last compound, the IC50 is about 9-fold lower.

Take `COc1ccccc1[C@H]1CO[C@@H](C)CN1c1cc2c(cn1)OCC(=O)N2` (racemic) [Example 62, (±)-7-(cis-5-(2-methoxyphenyl)-2-methylmorpholino)-1H-pyrido[3,4-b][1,4]oxazin-2(3H)-one]: half-maximal inhibition (IC50) required 7910 nM.

`O=C1COc2ccc(N3CCOCC34CCc3ccccc34)nc2N1` (stereo not shown) [Example 36, 6-(2,3-dihydrospiro[indene-1,3′-morpholin]-4′-yl)-2H-pyrido[3,2-b][1,4]oxazin-3(4H)-one] registered an IC50 of 1740 nM.

For the compound `O=C1COc2ccc(N3C[C@@H](CF)OC[C@H]3c3ccccc3)nc2N1` [Example 39, 6-((2S,5R)-2-(fluoromethyl)-5-phenylmorpholino)-2H-pyrido[3,2-b][1,4]oxazin-3(4H)-one], it took 86.7 nM to reach half-maximal inhibition (IC50).

For `C[C@H]1CN(c2ncc3c(n2)NC(=O)CO3)[C@@H](c2cccc(F)c2)CO1` (racemic) [Example 51, (±)-2-(cis-5-(3-fluorophenyl)-2-methylmorpholino)-6H-pyrimido[5,4-b][1,4]oxazin-7(8H)-one], the IC50 stood at 537 nM.

In the case of `O=C1COc2ccc(N3CCOC4(CCOc5ccccc54)C3)cc2N1` (stereo not shown) [Example 73, 6-(spiro[chroman-4,2′-morpholine]-4′-yl)-2H-benzo[b][1,4]oxazin-3(4H)-one], the IC50 was 6340 nM. This IC50 is about 12-fold higher than that of the compound before.

With `C[C@H]1CN(c2ccc3c(n2)NC(=O)CO3)[C@@H]2c3ccccc3C[C@@H]2O1` (single isomer, unassigned) [Example 24], the IC50 was found to be 1770 nM.

`O=C1COc2ccc(N3CCOC[C@H]3c3ccccc3)cc2N1` [Example 21, (R)-6-(3-phenylmorpholino)-2H-benzo[b][1,4]oxazin-3(4H)-one] registered an IC50 of 583 nM.

Take `C[C@@H]1CN(c2cc3c(cn2)OCC(=O)N3)[C@H](c2ccc(F)cc2)CO1` [Example 61, 7-((2R,5R)-5-(4-fluorophenyl)-2-methylmorpholino)-1H-pyrido[3,4-b][1,4]oxazin-2(3H)-one]: the half-maximal inhibitory concentration (IC50) is 646 nM.

As to `Cc1ccc(C2(C)CN(c3ccc4c(c3)NC(=O)CO4)CCO2)cc1` (stereo not shown) [Example 74, 6-(2-methyl-2-p-tolylmorpholino)-2H-benzo[b][1,4]oxazin-3(4H)-one], the half-maximal inhibitory concentration (IC50) was found to be 3420 nM.

In the case of `C[C@@H]1CN(c2ccc3c(n2)NC(=O)CO3)C[C@H](C)O1` [Example 25, 6-(cis-2,6-dimethylmorpholino)-2H-pyrido[3,2-b][1,4]oxazin-3(4H)-one], the IC50 came to 798 nM.

Consider `CC1(c2ccccc2)CN(c2ccc3c(c2)NC(=O)CO3)CCO1` (stereo not shown) [Example 38, 6-(2-methyl-2-phenylmorpholino)-2H-benzo[b][1,4]oxazin-3(4H)-one], for which it took 4970 nM to reach half-maximal inhibition (IC50).

As for `C[C@@H]1CN(c2ccc3c(n2)NC(=O)CO3)[C@H](c2ccccc2Cl)CO1` (single isomer, unassigned) [Example 67], the concentration for half-maximal inhibition (IC50) was 135 nM.

As for `N#CC[C@@H]1CN(c2ccc3c(n2)NC(=O)CO3)[C@H](c2ccccc2)CO1` [Example 40, 2-((2R,5R)-4-(3-oxo-3,4-dihydro-2H-pyrido[3,2-b][1,4]oxazin-6-yl)-5-phenylmorpholin-2-yl)acetonitrile], the concentration for half-maximal inhibition (IC50) came to 97.9 nM.

Turning to `C[C@@H]1CN(c2ccc3ncc(=O)[nH]c3c2)[C@H](c2ccccc2)CO1` [Example 3, 7-((2R,5R)-2-methyl-5-phenylmorpholino)quinoxalin-2(1H)-one], the IC50 came to 157 nM.

As to `C[C@@H]1CN(c2cnc3c(c2)NC(=O)CO3)[C@H](c2ccccc2)CO1` [Example 58, 7-((2R,5R)-2-methyl-5-phenylmorpholino)-1H-pyrido[2,3-b][1,4]oxazin-2(3H)-one], the IC50 turned out to be 2990 nM.

Compound `C[C@@H]1CN(c2ccc3c(n2)NCCO3)[C@H](c2ccccc2)CO1` [Example 6, 6-[(2R,5R)-2-methyl-5-phenylmorpholin-4-yl]-3,4-dihydro-2H-pyrido[3,2-b][1,4]oxazine] returned a concentration for half-maximal inhibition (IC50) of 977 nM.

`C[C@H]1CN(c2ccc3c(n2)NC(=O)CO3)CCO1` (single isomer, unassigned) [Example 18] returned an IC50 of 2710 nM.

Turning to `C[C@H]1CN(c2ccc3c(n2)NC(=O)CO3)[C@@H](c2ccccc2F)CO1` (racemic) [Example 7, (±)-6-(cis-5-(2-fluorophenyl)-2-methylmorpholino)-2H-pyrido[3,2-b][1,4]oxazin-3(4H)-one], the IC50 came to 63.6 nM.

In turn, `C[C@@H]1CN(c2ccc3c(n2)NC(=O)CO3)[C@H](c2ccc(F)cc2F)CO1` [Example 52, 6-((2R,5R)-5-(2,4-difluorophenyl)-2-methylmorpholino)-2H-pyrido[3,2-b][1,4]oxazin-3(4H)-one] had an IC50 of 278 nM.

In turn, `C[C@@H]1CN(c2cc3c(cn2)OCC(=O)N3)[C@H](c2ccccc2F)CO1` (single isomer, unassigned) [Example 33] returned an IC50 of 53.9 nM.

`C[C@@H]1CN(c2ncc3c(n2)NC(=O)CO3)[C@H](c2ccccc2)[C@H](C)O1` [Example 42, 2-((2S,3R,6R)-2,6-dimethyl-3-phenylmorpholino)-6H-pyrimido[5,4-b][1,4]oxazin-7(8H)-one] showed a half-maximal inhibitory concentration (IC50) of 527 nM.

In turn, `C[C@@H]1CN(c2ccc3c(c2)NC(=O)CS3)[C@H](c2ccccc2)CO1` [Example 4, 6-((2R,5R)-2-methyl-5-phenylmorpholino)-2H-benzo[b][1,4]thiazin-3(4H)-one] displayed a half-inhibitory concentration (IC50) of 306 nM.

Take `Cc1cc(N2C[C@@H](C)OC[C@H]2c2ccccc2)nc2c1OCC(=O)N2` [Example 5, 8-methyl-6-((2R,5R)-2-methyl-5-phenylmorpholino)-2H-pyrido[3,2-b][1,4]oxazin-3(4H)-one]: it took 174 nM to reach half-maximal inhibition (IC50).

In the case of `C[C@H]1CN(c2ncc3c(n2)NC(=O)CO3)[C@@H](c2ccccc2Cl)CO1` (racemic) [Example 64, (±)-2-(cis-5-(2-chlorophenyl)-2-methylmorpholino)-6H-pyrimido[5,4-b][1,4]oxazin-7(8H)-one], the IC50 worked out at 449 nM.

`C[C@@H]1CN(c2ncc3c(n2)NC(=O)CO3)[C@H](c2ccccc2)CO1` [Example 2, 2-((2R,5R)-2-methyl-5-phenylmorpholino)-6H-pyrimido[5,4-b][1,4]oxazin-7(8H)-one] showed an IC50 of 266 nM.

In turn, `C[C@@H]1CN(c2cc3c(cn2)OCC(=O)N3)[C@H](c2ccccc2)[C@H](C)O1` [Example 43, 7-((2S,3R,6R)-2,6-dimethyl-3-phenylmorpholino)-1H-pyrido[3,4-b][1,4]oxazin-2(3H)-one] yielded an IC50 of 395 nM.

Take `C[C@H]1CN(c2cc3c(cn2)OCC(=O)N3)[C@@H](c2ccccc2Cl)CO1` (racemic) [Example 65, (±)-7-(cis-5-(2-chlorophenyl)-2-methylmorpholino)-1H-pyrido[3,4-b][1,4]oxazin-2(3H)-one]: the IC50 came to 631 nM.

Compound `C[C@@H]1CN(c2ccc3c(n2)NC(=O)CO3)[C@@H]2c3ccccc3C[C@@H]2O1` (single isomer, unassigned) [Example 23] yielded an IC50 of 284 nM.

The compound `C[C@@H]1CN(c2ccc3c(c2)NS(=O)(=O)CO3)[C@H](c2ccccc2)CO1` [Example 47, 7-[(2R,5R)-2-methyl-5-phenylmorpholin-4-yl]-1H-4,2,1-benzoxathiazine 2,2-dioxide] displayed an IC50 of 1630 nM.

The assay is the same for the next values; noted with them: antagonist mode; decrease of EC80 aldosterone signal by 50%; Huh7 cells transfected with Gal4-MR-LBD and Gal4-RE-luc.
As to “(±)-2-(cis-5-(2-methoxyphenyl)-2-methylmorpholino)-6H-pyrimido[5,4-b][1,4]oxazin-7(8H)-one [Example 56]”, 5330 nM corresponded to half-maximal inhibition (IC50).

The values above are taken from patent publication US20110281854A1, “MORPHOLINE COMPOUNDS” (Pfizer Inc, priority 2010, published 2011).
